The data set is described as follows: Human HepG2 cell viability assay in 384 well format. It is filed as toxicity, cell-based. On the set-up: dose 125 nL, time 70.5 hour; concentration not given beside the values. Conditions: HepG2 cells, read-out: Inhibition.
Turning to `CNC(=O)[C@@]12CCC3(CCN(S(C)(=O)=O)CC3)[C@@H]1CN(C(C)=O)C2`, the cytotoxicity at 70.5 h was -0.353%. For `CNC(=O)[C@@]12CCC3(CCN(S(=O)(=O)C4CC4)CC3)[C@@H]1CN(C(C)=O)C2` the value was 20.2%; for `COCc1ncn2c1CN(C(=O)c1ccc[nH]1)CC2`, -4.65%; for `CNC(=O)[C@@]12CCC3(CCN(C(=O)C(C)C)CC3)[C@@H]1CN(S(C)(=O)=O)C2`, 2.4%. For `Cc1nccc([C@@H]2C[C@H]3CN(S(=O)(=O)c4ccccc4)C[C@H]3O2)n1` the value was -2.27%; for `CC(C)CC(=O)N1CCCC2(CC(C(=O)Nc3ccccc3)=NO2)C1` (configuration not stated), -0.967%; for `O=C(Nc1ccccc1)C1=NOC2(CCCN(C(=O)C3CCCC3)C2)C1` (configuration not stated), -1.79%. The same measure for `CC(C)(C)CC(=O)N1CCCC2(CC(C(=O)Nc3ccccc3)=NO2)C1` (configuration not stated): -8.03%; for `O=C(C1CCOCC1)N1C[C@H](OCc2cccnc2)[C@H]2COC[C@H]21`: -5.49%; for `O=C(c1cscn1)N1C[C@H](OCc2cccnc2)[C@H]2COC[C@H]21`: -5.24%. On to `Cc1ccc(C(=O)N2C[C@H](OCc3cccnc3)[C@H]3COC[C@H]32)cn1`, for which the cytotoxicity at 70.5 h was -2.21%. The same measure for `COc1ncccc1C(=O)Nc1nc2c(s1)CN(S(=O)(=O)C1CC1)CC2`: 3.95%; for `CS(=O)(=O)N1CCc2nc(NC(=O)Nc3c(F)cccc3F)sc2C1`: 0.946%. The same measure for `Cc1ccc(S(=O)(=O)NC2CNC(=O)C2)cc1C` (configuration not stated): 0.672%; for `COc1cccc(S(=O)(=O)NC2CNC(=O)C2)c1` (configuration not stated): 1.68%. For `O=C(c1cnn2c1OCCC2)N1CCC2(CC1)OCCO2` the value was -1.08%.

In the case of `COc1ccc(C)cc1NC(=O)Nc1cnc(N2CCN(C)CC2)nc1`, the cytotoxicity at 70.5 h was found to be 16.2%.

As to `Cn1c(C(F)(F)F)nn(CCNC(=O)NCc2ccccc2)c1=O`, the cytotoxicity at 70.5 h is 16.5%. For `Cc1noc(-c2ccc(N3CCCC(C(=O)N4CCSCC4)C3)nc2)n1` (configuration not stated) the value was 3.88%; for `O=C1CCSCC(C(=O)N2CCCC2)N1` (configuration not stated), -2.31%. The same measure for `O=C1CCSCC(C(=O)N2CCN(C3CCCCC3)CC2)N1` (configuration not stated): 0.692%; for `CN(C)S(=O)(=O)N1CCC(Oc2ccccn2)CC1`: 3.95%; for `CCOCC(=O)N1CCC(Oc2ccc(C(F)(F)F)cn2)CC1`: -4.36%. As for `CCOCC(=O)N1CCC(Oc2ccc(Cl)cn2)CC1`, the cytotoxicity at 70.5 h is -4.45%. For `COc1ccccc1S(=O)(=O)N1CCC(Oc2cccnn2)CC1` the value was 3.7%; for `O=C(c1ccc(F)c(F)c1)N1CCCSCC1CN1CCCC1` (configuration not stated), -0.49%; for `Cc1cnc2n(c1=O)CC(C(=O)NC1CC1)CS2` (configuration not stated), 2.18%.

As to `Cc1cnc2n(c1=O)CC(C(=O)Nc1cccc3cccnc13)CS2` (configuration not stated), the cytotoxicity at 70.5 h was -5.53%.

On to `CCc1c(C)nc2n(c1=O)CC(C(=O)Nc1nccs1)CS2` (configuration not stated), for which the cytotoxicity at 70.5 h was determined as 33.6%. For `COC(=O)N1CCc2ccc(NC(=O)c3cn(C)nn3)cc2C1` the value was -4.27%; for `O=C(CC1CCCC1)NCCn1ccc(-c2ccncc2)n1`, 9.19%; for `O=C(NCCn1ccc(-c2ccccn2)n1)c1ccncc1`, 11.3%.

On to `Cn1nc(CNC(=O)c2nc3ccccc3s2)c2c1CCOC2`, for which the cytotoxicity at 70.5 h was 8.85%. In the case of `Cn1nc(CNC(=O)C2CC2)cc1C1CC1`, the cytotoxicity at 70.5 h was 8.22%. The same measure for `Cn1cnnc1S(=O)(=O)C1CCN(S(=O)(=O)C2CC2)CC1`: -1.29%; for `O=S(=O)(Nc1cnn(C2CCOCC2)c1)c1c(F)cccc1F`: -1.01%; for `O=C(CSC1CCc2ccccc2NC1=O)NCCO` (configuration not stated): 2.81%. The same measure for `Cc1[nH]/c(=N\C(=O)c2csc(NCC(C)C)n2)sc1C`: 5.69%; for `O=C(Cn1cc(-c2ccccc2)ncc1=O)Nc1nnc[nH]1`: -13.5%; for `O=C(Cn1c(=O)nc2n1C(=O)N(c1ccccc1)C2)Nc1ccccc1`: -7.97%.

Consider `COCCNC(=O)c1sc(Nc2ccc(Cl)cn2)nc1C`, for which the cytotoxicity at 70.5 h is -13.2%. In the case of `COCc1c(C(=O)O)nnn1Cc1cccc(C(F)(F)F)c1`, the cytotoxicity at 70.5 h was -18.5%. The same measure for `O=C(Cn1cc(C(=O)O)ccc1=O)Nc1ccc(F)cc1Cl`: -23.3%. As to `Cc1ccc(C2C3=C(COC3=O)Nc3[nH]nc(C)c32)cc1C` (configuration not stated), the cytotoxicity at 70.5 h was -3.38%. For `CC(C)CCN1CN=C(NS(=O)(=O)c2ccc(F)cc2)NC1` the value was -8.69%; for `Cc1c(C)n(Cc2ccncc2)c2nc3c(c(N)c12)CCCCC3`, 25.4%; for `CCOC(=O)C1CCN(C(=O)Cn2ccc3cc(Br)ccc32)CC1`, 24.7%. As for `O=C(NCCN1CCCCC1)c1nc(-c2ccc3cc[nH]c3c2)no1`, the cytotoxicity at 70.5 h was -4.34%.

In the case of `Cn1c(=O)n(C)c2cc(C3SCC(=O)Nc4ccsc43)ccc21` (configuration not stated), the cytotoxicity at 70.5 h was 38.6%.

Regarding `CC(C)NC(=O)c1ccc2c(c1)nc1n2CCN(C(C)C)C1`, the cytotoxicity at 70.5 h was -13.4%.

With `CC(C)c1cc2c(O)nc(CSCC(=O)O)nc2s1`, the cytotoxicity at 70.5 h is -14.7%. For `COc1ccc(-c2noc(C(=O)NCCN3CCCCC3)n2)cc1OC` the value was 26.1%. For `CC(C)NC(=O)c1ccc2c(c1)nc1n2CCN(c2ccccc2)C1` the value was -11.7%; for `O=c1ccc(-c2cccs2)nn1CN1CCN(Cc2ccccc2)CC1`, -13.1%; for `O=C1CC(c2ccccc2F)c2c(n3ccsc3nc2=O)N1` (configuration not stated), -14%. For `CCOc1ccc(C2CC(=O)Nc3c2c(=O)nc2sccn32)cc1` (configuration not stated) the value was -31.7%; for `COc1cc(CC(O)CO)c(OC)c2c1OCO2` (configuration not stated), 30.2%. On to `COC(=O)CNC(=O)CSCc1nc(O)c2c(C)c(C)sc2n1`, for which the cytotoxicity at 70.5 h is -18.2%. As for `CC1CCc2nc(O)c(C(=O)NCCN(C)C)cc2C1` (configuration not stated), the cytotoxicity at 70.5 h was -18.1%. The same measure for `O=C1CSC(c2ccsc2)c2sccc2N1` (configuration not stated): -18.3%; for `O=C(Cn1nc(-c2cccs2)ccc1=O)N1CCCCCC1`: -24.9%.

Consider `Cc1ccc(C)c(-c2csc(N)c2C#N)c1`, for which the cytotoxicity at 70.5 h was -3.45%. The same measure for `O=c1[nH]c2c(c(=O)n1C1CCCCC1)CCC2Nc1ccccc1` (configuration not stated): 6.54%. Consider `CCCN1C(=O)CC(N2CCN(c3ccc(F)cc3)CC2)C1=O` (configuration not stated), for which the cytotoxicity at 70.5 h turned out to be 7.23%. For `Cc1cc2nc(SCC(=O)N3CCCC3)n(C(C)C)c(=O)c2[nH]1` the value was 14.9%; for `CCc1ccc(-n2c(=O)[nH]c3nc(N4CCSCC4)ncc3c2=O)cc1`, -8.65%; for `COc1cccc(N2CCN(CC(O)c3cc(C)ccc3C)CC2)c1` (configuration not stated), 30.4%.

As for `CC(C)n1c(=O)nc2n1C(=O)N(c1ccccc1)C2`, the cytotoxicity at 70.5 h was -5.73%. For `CCn1nccc1CN(C)C(=O)Cn1nc(C)cc1C` the value was 16.1%; for `CCC(=O)N1CCCCC1c1nc(N(C)C)ncc1-c1cc(C)no1` (configuration not stated), 1.06%; for `CN(C)C(=O)c1cccc(C2CNCCN2C)c1` (configuration not stated), -4.31%. With `CC(c1cc(O)nc(NC2CCCC2)n1)n1ncc2ccccc2c1=O` (configuration not stated), the cytotoxicity at 70.5 h was -8.36%. With `CN(CC1(C)COC1)C(=O)c1cc(-c2cnn(C)c2)nc2ccccc12`, the cytotoxicity at 70.5 h was -6.09%. For `CNc1cccc(CC2COCCN(C(=O)c3cccnc3)C2)n1` (configuration not stated) the value was -3.83%; for `O=C(c1cncs1)N1CCOCC(Cc2ccncn2)C1` (configuration not stated), -7.66%; for `CC1(C(=O)N2CCN(c3cnccn3)CC2)CNCCO1` (configuration not stated), 28.1%. For `CCn1ncc(S(=O)(=O)N[C@@H]2CC[C@@H](n3ccnc3)[C@@H]2O)c1C` the value was -10.4%. As for `COCCNc1ncc(-c2cc(C)no2)c(-c2ccco2)n1`, the cytotoxicity at 70.5 h is 8.77%. For `CCOCCCNc1ncc(-c2onc(C)c2C)c(-c2ccco2)n1`, the cytotoxicity at 70.5 h is -10.1%. In the case of `Cc1noc(-c2cnc(NCC3CCCO3)nc2-c2ccco2)c1C` (configuration not stated), the cytotoxicity at 70.5 h was -7.96%.

For the compound `Cc1noc(-c2cnc(NC3CC3)nc2-c2ccco2)c1C`, the cytotoxicity at 70.5 h is -14.9%.

As for `Cc1c[nH]c(C2CCCN2C(=O)CCc2c(C)n[nH]c2C)n1` (configuration not stated), the cytotoxicity at 70.5 h was -11.3%. For `CNC(=O)CCc1cc(C)nc(C2CCN(CC(=O)N(C)C)CC2)c1` the value was -6.28%.

Take `CN(C)c1cncc(C2CCCN(c3cnccn3)C2)n1` (configuration not stated): the cytotoxicity at 70.5 h is -6.42%. The same measure for `c1cncc(CN2CCC(c3csc4nccn34)CC2)c1`: -4.71%.

Regarding `O=S(=O)(N1CCOCC1)N1CCCC(c2ccccn2)C1` (configuration not stated), the cytotoxicity at 70.5 h was -8.61%. For `Cc1c[nH]nc1C1CCN(c2cnccn2)C1` (configuration not stated) the value was 5.06%; for `COc1ccc(CNCC(C)Oc2ccccn2)cc1Br` (configuration not stated), -18.5%; for `COCCNc1cc(C2CCCNC2)ccn1` (configuration not stated), -7.3%. For `CNC(=O)c1ccc2c(c1)C1(CCN(CC3CC3)CC1)C(=O)N2` the value was 1.88%. As to `COCCN1CCC2(CC1)C(=O)Nc1ccc(C(=O)NC(C)C)cc12`, the cytotoxicity at 70.5 h was 1.35%.

Take `CNC(=O)CN1CC[C@H]2CN(C(=O)c3ccccc3C)C[C@H]2C1`: the cytotoxicity at 70.5 h was -3.61%. The same measure for `CC(C)CNC(=O)[C@H]1CCS(=O)(=O)[C@@H]2CN(Cc3ccc(F)cc3)C[C@H]12`: -10.2%.

Consider `Cc1noc(C)c1CN1C[C@@H]2CCCO[C@@H]2[C@H](Nc2ccccn2)C1`, for which the cytotoxicity at 70.5 h was -4.07%. For `O=C(CC1CC1)N1CC[C@@H]2[C@H](CC1)N(Cc1cccnc1)CCS2(=O)=O` the value was 5.01%.

For `c1cncc(C2COC3(CCN(Cc4ccsc4)CC3)C2)c1` (configuration not stated), the cytotoxicity at 70.5 h is -3.18%.

`CCS(=O)(=O)N1CC[C@@H]2[C@H](CC1)N(Cc1cccnc1)CCS2(=O)=O`: the cytotoxicity at 70.5 h is -4.2%.

Values taken from ChEMBL document CHEMBL3507680, “University of Dundee, Gates Library screen for HepG2 cell viability”.
